Patent US20230053688A1, “METHODS TO ALTER LATENCY IN EBV+ MALIGNANCIES” (Cornell University, priority 2020, published 2023)
Where a name gives a salt, the structure may show the parent alone. Read-outs that look alike come from different tables or passages of the source.

System: LMP1 expression in Kem I cells
Assay: microbe, parasite or virus in culture
Format: cell-based, EBV
Conditions: for Average LMP1 Fold Increase / Replicate 1-LMP1 Fold Increase / Replicate 2-LMP1 Fold Increase: Kem I cells, 2.5 uM, 48 hours; for Average LMP1 Fold Increase: average of replicates 1 and 2; for Replicate 1-LMP1 Fold Increase / Replicate 2-LMP1 Fold Increase: fold change in LMP1 transcript vs vehicle; for fold induction at 1 µM / fold induction at 2.5 µM: human gammaherpesvirus 4, 48 h
[1] = read-out: Average LMP1 Fold Increase, Kem I cells, 2.5 uM, 48 hours, average of replicates 1 and 2
[2] = read-out: Replicate 1-LMP1 Fold Increase, Kem I cells, 2.5 uM, 48 hours, fold change in LMP1 transcript vs vehicle
[3] = read-out: Replicate 2-LMP1 Fold Increase, Kem I cells, 2.5 uM, 48 hours, fold change in LMP1 transcript vs vehicle

| SMILES | Average LMP1 Fold Increase | Replicate 1-LMP1 Fold Increase | Replicate 2-LMP1 Fold Increase | also measured |
| --- | --- | --- | --- | --- |
| Cc1cccc(CC(=O)N2CCc3c2ccc(-c2cn(C)c4ncnc(N)c24)c3F)n1 [GSK2656157] | 0.71 | 0.58 | 0.84 |  |
| CCOC(=O)CCNc1cc(N2CCc3ccccc3CC2)nc(-c2ccccn2)n1.Cl [GSK J4 HCl] | 32.34 | 48.53 | 16.15 |  |
| Cc1cc(SCc2sc(-c3ccc(C(F)(F)F)c(F)c3)nc2C)ccc1OCC(=O)O [GW0742] | 0.76 | 0.53 | 0.99 |  |
| COc1ccc(COc2ccc(Cc3cnc(N)nc3N)cc2OC)cc1 [GW2580] | 0.49 | 0.50 | 0.48 |  |
| Cl.O=C(O)Cc1cccc(OCCCN(Cc2cccc(C(F)(F)F)c2Cl)CC(c2ccccc2)c2ccccc2)c1 [GW3965 HCl] | 0.27 | 0.20 | 0.35 |  |
| CC(C)c1onc(-c2c(Cl)cccc2Cl)c1COc1ccc(/C=C/c2cccc(C(=O)O)c2)c(Cl)c1 [GW4064] | 0.72 | 0.94 | 0.50 |  |
| O=C(O)CCc1ccc(NCc2cccc(Oc3ccccc3)c2)cc1 [GW9508] | 0.48 | 0.52 | 0.45 |  |
| O=C(Nc1ccccc1)c1cc([N+](=O)[O-])ccc1Cl [GW9662] | 0.58 | 0.26 | 0.89 |  |
| Cn1cc(/C=C2\C(=O)Nc3cccnc32)c2ccccc21 [GW441756] | 0.80 | 0.70 | 0.89 |  |
| CC(C)c1cc(-c2n[nH]c(=O)n2-c2ccc3c(ccn3C)c2)c(O)cc1O [Ganetespib] |  |  |  | fold induction at 1 µM (read-out: Average LMP1 Fold Increase, Kem I cells, 1 uM, 48 hours, average of replicates 1 and 2): 23.4; fold induction at 1 µM (read-out: Replicate 1-LMP1 Fold Increase, Kem I cells, 1 uM, 48 hours, fold change in LMP1 transcript vs vehicle): 8.07; fold induction at 1 µM (read-out: Replicate 2-LMP1 Fold Increase, Kem I cells, 1 uM, 48 hours, fold change in LMP1 transcript vs vehicle): 38.8 |
| C[C@@H]1C(=O)O[C@H]2C[C@@]34[C@H]5C[C@@H](C(C)(C)C)[C@]36[C@@H](OC(=O)[C@@H]6O)O[C@@]4(C(=O)O5)[C@]21O [Ginkgolide A] | 0.91 | 1.33 | 0.49 |  |
| CC1C(=O)OC2C(O)C34C5CC(C(C)(C)C)C36C(OC(=O)C6O)OC4(C(=O)O5)C12O (stereo not drawn) [Ginkgolide B] | 0.76 | 1.04 | 0.49 |  |
| Cc1ccc(S(=O)(=O)NC(=O)NN2CC3CCCC3C2)cc1 (stereo not drawn) [Gliclazide] |  |  |  | fold induction at 2.5 µM [1]: 0.73; fold induction at 2.5 µM [2]: 0.98; fold induction at 2.5 µM [3]: 0.49 |
| COc1ccc2c(c1)C(=O)N(CCc1ccc(S(=O)(=O)NC(=O)NC3CCCCC3)cc1)C(=O)C2(C)C [Gliquidone] |  |  |  | fold induction at 2.5 µM [1]: 0.77; fold induction at 2.5 µM [2]: 0.81; fold induction at 2.5 µM [3]: 0.73 |
| COc1ccc2c(c1)c(C1=C(c3c[nH]c4ccccc34)C(=O)NC1=O)cn2CCCN(C)C [Go 6983] | 0.34 | 0.22 | 0.45 |  |
| CN1C2CCCC1CC(NC(=O)c1nn(C)c3ccccc13)C2 (stereo not drawn) [Granisetron HCl] |  |  |  | fold induction at 2.5 µM [1]: 0.25; fold induction at 2.5 µM [2]: 0.25; fold induction at 2.5 µM [3]: 0.24 |
| Cl.Cl.O=S(=O)(NCCNC/C=C/c1ccc(Br)cc1)c1cccc2cnccc12 [H 89 2HCl] | 0.68 | 0.54 | 0.82 |  |
| CC(C)c1ccc(NC(=O)Cn2cnc3c2c(=O)n(C)c(=O)n3C)cc1 [HC-030031] | 0.28 | 0.32 | 0.24 |  |
| O=C1[C@H](Cc2ccc(O)cc2)N2C(=O)CCN(C(=O)NCc3ccccc3)[C@H]2CN1Cc1cccc2ccccc12 [ICG-001] | 1.04 | 1.17 | 0.92 |  |
| O=C(c1ccc(Nc2nccc(-c3cc4ccccc4s3)n2)cc1)N1CCC(N2CCCC2)CC1 [IKK-16 (IKK Inhibitor VII)] | 0.30 | 0.26 | 0.35 |  |
| O=C(Nc1cc(C(F)(F)F)cc(C(F)(F)F)c1)c1cc(Cl)ccc1O [IMD 0354] |  |  |  | fold induction at 2.5 µM [1]: 0.62; fold induction at 2.5 µM [2]: 0.74; fold induction at 2.5 µM [3]: 0.5 |
